Results from patent US8143227B2, “Azithromycin for treatment of skin disorders” (priority 2008, dated 2012).

System: moderate to severe facial acne vulgaris
Test: Additional low dosage regimens, lesion counts
Assay type: in vivo, human
Procedure: Five male subjects and five female subjects with moderate to severe facial acne vulgaris, having a mean age of 19.6 years, were treated either with 25 mg of oral azithromycin daily or with 80 mg of oral azithromycin every other day. Each of the ten subjects had acne nodules. The male subjects received the 25 mg per day regimen and the female subjects received the 80 mg every other day regimen. Treatment was continued for a duration of 6 weeks. The numbers of facial inflammatory lesions: papules, pustules, and nodules, and non-inflammatory lesions: open and closed comedones, were counted at the beginning of treatment and again after 3 weeks of treatment and after 6 weeks of treatment. Additionally, nodules were counted independently at each of these visits. Additionally, during the treatment study, each subject reported the occurrence of any adverse effects. The results of this study for the 25 mg/day regimen are shown in Table 7 and for the 80 mg every other day regiment in Table 8. In these tables, the numbers represent the mean number of lesions in the four subjects of each group. The % decrease from Day 0 was calculated as the mean of the differences for each of the parameters (inflammatory lesions, non-inflammatory lesion and nodules) for each individual subject on Day 21 and Day 42.

[1] = 25 mg/day for 6 weeks, male subjects, Day 0 (beginning of treatment)
[2] = 25 mg/day for 6 weeks, male subjects, Day 21
[3] = 25 mg/day for 6 weeks, male subjects, Day 42
[4] = 80 mg every other day for 6 weeks, female subjects, Day 0 (beginning of treatment)
[5] = 80 mg every other day for 6 weeks, female subjects, Day 21
[6] = 80 mg every other day for 6 weeks, female subjects, Day 42

## CC[C@H]1OC(=O)[C@H](C)[C@@H](O[C@H]2C[C@@](C)(OC)[C@@H](O)[C@H](C)O2)[C@H](C)[C@@H](O[C@@H]2O[C@H](C)C[C@H](N(C)C)[C@H]2O)[C@](C)(O)C[C@@H](C)CN(C)[C@H](C)[C@@H](O)[C@]1(C)O [Azithromycin, 9-deoxo-9a-aza-9a-methyl-9a-homoerythromycin A]
25 mg per day, daily
  effectiveness in treating skin disorders such as acne in adults: effective
[1]
  Inflammatory lesions (mean number): 37.4
  Nodules (mean number): 3.0
  Non-inflammatory lesions (mean number): 12.6
[2]
  Inflammatory lesions % Decrease from Day 0: 38.0%
  Inflammatory lesions (mean number): 22.8
  Nodules % Decrease from Day 0: 45.0%
  Nodules (mean number): 1.6
  Non-inflammatory lesions % Decrease from Day 0: 18.8%
  Non-inflammatory lesions (mean number): 10.2
[3]
  Inflammatory lesions % Decrease from Day 0: 41.0%
  Inflammatory lesions (mean number): 22.0
  Nodules % Decrease from Day 0: 58.3%
  Nodules (mean number): 1.2
  Non-inflammatory lesions % Decrease from Day 0: 34.3%
  Non-inflammatory lesions (mean number): 8.4
80 mg every other day
  effectiveness in treating skin disorders such as acne: effective
[4]
  Inflammatory lesions (mean number): 24.4
  Nodules (mean number): 3.8
  Non-inflammatory lesions (mean number): 48.6
[5]
  Inflammatory lesions % Decrease from Day 0: 34.0%
  Inflammatory lesions (mean number): 16.0
  Nodules % Decrease from Day 0: 76.0%
  Nodules (mean number): 1.0
  Non-inflammatory lesions % Decrease from Day 0: 18.5%
  Non-inflammatory lesions (mean number): 41.2
[6]
  Inflammatory lesions % Decrease from Day 0: 15.5%
  Inflammatory lesions (mean number): 20.4
  Nodules % Decrease from Day 0: 58.0%
  Nodules (mean number): 1.8
  Non-inflammatory lesions % Decrease from Day 0: 30.1%
  Non-inflammatory lesions (mean number): 31.6
